Converted amounts (≈) assume the structure as drawn.
What was measured:
[1] = tested on: Actinomyces viscosus ATCC 43146; assay: Automatic MIC-Screening, broth dilution method; format: cell-based; settings: micro titer plates, 37° C., 24 hours, tested 120 to 3.75 μg/ml
Experimental: (§1) Determination of the Minimum Inhibitory Concentration (MIC Value)
(§2) 8 μl of each dilution step is mixed with 192 μl of nutrient medium in micro titer plates. The plates are incubated at 37° C. for 24 hours and then the highest dilution (lowest concentration) of the test substance at which growth is just no longer discernible is determined (corresponds to the MIC).

[2] = tested on: Corynebacterium sp. (Corynebacterium xerosis ATCC 373 oder C. minutissimum ATCC 23348); assay: Automatic MIC-Screening, broth dilution method; format: cell-based; settings: micro titer plates, 37° C., 24 hours, tested 120 to 3.75 μg/ml
Experimental: as §1, §2

[3] = tested on: Staphylococcus aureus ATCC 6538; assay: Automatic MIC-Screening, broth dilution method; format: cell-based; settings: micro titer plates, 37° C., 24 hours, tested 120 to 3.75 μg/ml
Experimental: as §1, §2

[4] = tested on: A. actinomycetemcomitans ATCC43718; assay: MIC vs. oral germs, broth dilution method; format: cell-based, Actinobacillus actinomycetemcomitans; settings: Aggregatibacter actinomycetemcomitans, ATCC43718, 24 h, read-out: MHK (MIC) A. actinomycetemcomitans ATCC43718
Text: (§3) b) Determination of MIC vs. different oral germs in the broth dilution method • Medium: Thioglycolate Bouillon with Hemin and Menadion Columbia Bouillon with Hemin and Menadion für P. gingivalis und P. nigrescens • diluent: the corresponding amount of the substances was pippeted directly • Examples of Test organisms: • Actinobacillus actinomycetemcomitans ATCC43718 • Streptococcus gordonii ATCC10558 • Streptococcus mutans ATCC33402 • Actinomyces viscosus ATCC43146 • Fusobacterium nucleatum subsp. polymorphum ATCC1095 • Porphyromonas gingivalis ATCC3277 • Prevotella nigrescens ATCC33563 • Incubation: 7-10 days at 37° C. under anaerobic conditions, resp. 24 h aerobically with 10% CO2 for Streptococci und A. actinomycetemcomitans • Test solution: Stock solutions in ethanol with 1500 ppm (w/w) are used from all test substances
(§4) Bacteria are taken from blood agar plates with cotton swabs and a suitable O.D. is adjusted in the corresponding medium (McFarland 0.5). This solution is used for F. nucleatum and P. nigrescens in undiluted state, for the other strains a dilution of 1:20 is used. To each 2 ml of active ingredient containing solution 0.1 ml of the bacteria culture is added and incubated as described above.

S. gordonii ATCC10558 = assay: MIC vs. oral germs, broth dilution method; format: cell-based, Streptococcus gordonii; settings: Streptococcus gordonii, ATCC10558, 24 h, read-out: MHK (MIC) S. gordonii ATCC10558
Text: as §3, §4

S. mutans ATCC33402 = assay: MIC vs. oral germs, broth dilution method; format: cell-based, Streptococcus mutans; settings: Streptococcus mutans, ATCC33402, 24 h, read-out: MHK (MIC) S. mutans ATCC33402
Text: as §3, §4

A. viscosus ATCC43146 = assay: MIC vs. oral germs, broth dilution method; format: cell-based, Actinomyces viscosus; settings: Actinomyces viscosus, ATCC43146, read-out: MHK (MIC) A. viscosus ATCC43146
Text: as §3, §4

[5] = tested on: F. nucleatum subsp. polymorphum ATCC10953; assay: MIC vs. oral germs, broth dilution method; format: cell-based, Fusobacterium nucleatum subsp. polymorphum; settings: Fusobacterium nucleatum, ATCC10953, read-out: MHK (MIC) F. nucleatum subsp. polymorphum ATCC10953
Text: as §3, §4

P. gingivalis ATCC3277 = assay: MIC vs. oral germs, broth dilution method; format: cell-based, Porphyromonas gingivalis; settings: Porphyromonas gingivalis, ATCC3277, read-out: MHK (MIC) P. gingivalis ATCC3277
Text: as §3, §4

P. nigrescens ATCC33563 = assay: MIC vs. oral germs, broth dilution method; format: cell-based, Prevotella nigrescens; settings: Prevotella nigrescens, ATCC33563, read-out: MHK (MIC) P. nigrescens ATCC33563
Text: as §3, §4

[6] = tested on: Aspergillus niger ATCC 6275; assay: MIC, Agar incorporation test; format: cell-based; settings: Aspergillus niger, ATCC6275
Experimental: (§5) 0.3 ml of each dilution step is mixed with 15 ml of nutrient medium while the latter is still liquid. After the nutrient medium has solidified, 10 μl of each of the following organism dilutions of the test strains in 0.85% NaCl solution are spotted onto the agar medium.
(§6) The plates are incubated during 24 hours at 37° C. and then the highest dilution (lowest concentration) of the test substance at which growth is just no longer discernible (corresponds to the MIC) is determined.

[7] = tested on: C. minutissimum ATCC 23348; assay: MIC, Agar incorporation test; format: cell-based; settings: Corynebacterium minutissimum, ATCC23348, 24 hours at 37° C.
Experimental: as §5, §6

[8] = tested on: Corynebacterium xerosis ATCC 373; assay: MIC, Agar incorporation test; format: cell-based; settings: Corynebacterium xerosis, ATCC373, 24 hours at 37° C.
Experimental: as §5, §6

[9] = tested on: Escherischia coli ATCC 10536; assay: MIC, Agar incorporation test; format: cell-based; settings: 24 hours at 37° C.
Experimental: as §5, §6

[10] = tested on: Klebsiella pneumoniae ATCC 4352; assay: MIC, Agar incorporation test; format: cell-based; settings: Klebsiella pneumoniae, ATCC4352, 24 hours at 37° C.
Experimental: as §5, §6

[11] = tested on: Propionibacterium acnes ATCC 6919; assay: MIC, Agar incorporation test; format: cell-based; settings: Cutibacterium acnes, ATCC6919, 24 hours at 37° C.
Experimental: as §5, §6

[12] = tested on: Proteus vulgaris ATCC 6896; assay: MIC, Agar incorporation test; format: cell-based; settings: Proteus vulgaris, ATCC6896, 24 hours at 37° C.
Experimental: as §5, §6

[13] = tested on: Pseudomonas aeruginosa ATCC 15442; assay: MIC, Agar incorporation test; format: cell-based; settings: Pseudomonas aeruginosa, ATCC15442, 24 hours at 37° C.
Experimental: as §5, §6

[14] = tested on: Staphylococcus aureus ATCC 6538; assay: MIC, Agar incorporation test; format: cell-based; settings: Staphylococcus aureus, ATCC6538, 24 hours at 37° C.
Experimental: as §5, §6

[15] = tested on: Staphylococcus epidermidis ATCC 12228; assay: MIC, Agar incorporation test; format: cell-based; settings: Staphylococcus epidermidis, ATCC12228, 24 hours at 37° C.
Experimental: as §5, §6

[16] = tested on: Candida albicans ATCC 10231; assay: MIC, Agar incorporation test; format: cell-based; settings: Candida albicans, ATCC10231, 72 h, Sabouraud 4% glucose agar, 3 days at 28° C.
Experimental: 0.3 ml of each dilution step is mixed with 15 ml of nutrient medium while the latter is still liquid. After the nutrient medium has solidified, 10 μl of each of the following organism dilutions of the test strains in 0.85% NaCl solution are spotted onto the agar medium. […]

Structure (SMILES)	MIK (MIC) A. viscosus [1] [μγ/ml]	MIK (MIC) Corynebacterium sp. [2] [μγ/ml]	MIK (MIC) S. aureus [3] [μγ/ml]	MIC [4] [µg/mL]	MIC (S. gordonii ATCC10558) [µg/mL]	MIC (S. mutans ATCC33402) [µg/mL]	MIC (A. viscosus ATCC43146) [µg/mL]	MIC [5] [µg/mL]	MIC (P. gingivalis ATCC3277) [µg/mL]	MIC (P. nigrescens ATCC33563) [µg/mL]	MIC [6] [µg/mL]	MIC [7] [µg/mL]	MIC [8] [µg/mL]	MIC [9] [µg/mL]	MIC [10] [µg/mL]	MIC [11] [µg/mL]	MIC [12] [µg/mL]	MIC [13] [µg/mL]	MIC [14] [µg/mL]	MIC [15] [µg/mL]	also measured
CCCCOC(=O)/C(C#N)=C(\O)c1ccc(-c2ccccc2)cc1 [(101b), 3-biphenyl-4-yl-2-cyano-3-hydroxy-acrylic acid butylester]	7.5	15	7.5	15 (≈ 46.7 µM)	3.75 (≈ 11.7 µM)	5.63 (≈ 17.5 µM)	3.75 (≈ 11.7 µM)	≤ 0.94	3.75 (≈ 11.7 µM)	> 15	> 100	12.5 (≈ 38.9 µM)	3.13 (≈ 9.74 µM)	> 100	> 100	12.5 (≈ 38.9 µM)	> 100	> 100	6.25 (≈ 19.4 µM)	6.25 (≈ 19.4 µM)	MIC [16]: > 100 µg/mL
CC(C)COC(=O)/C(C#N)=C(\O)c1ccc(-c2ccccc2)cc1 [(101c), 3-biphenyl-4-yl-2-cyano-3-hydroxy-acrylic acid isobutylester]	7.5	7.5	7.5	15 (≈ 46.7 µM)	3.75 (≈ 11.7 µM)	5.63 (≈ 17.5 µM)	7.5 (≈ 23.3 µM)	7.5 (≈ 23.3 µM)	7.5 (≈ 23.3 µM)	> 15	> 50	12.5 (≈ 38.9 µM)	3.13 (≈ 9.74 µM)	> 50	> 50	12.5 (≈ 38.9 µM)	> 50	> 50	12.5 (≈ 38.9 µM)	6.25 (≈ 19.4 µM)	MIC [16]: > 50 µg/mL
CCCCCCCCOC(=O)/C(C#N)=C(\O)c1ccc(-c2ccccc2)cc1 [(101d), 3-biphenyl-4-yl-2-cyano-3-hydroxy-acrylic acid octylester]	<3.75	<3.75	<3.75	≥ 15	≤ 0.94	≤ 0.94	≤ 0.94	15 (≈ 39.7 µM)	7.5 (≈ 19.9 µM)	> 15	> 400	< 1.56	< 1.56	> 400	> 400	6.25 (≈ 16.6 µM)	> 400	> 400	< 1.56	< 1.56	MIC [16]: > 400 µg/mL

Source: patent publication US7476753B2, “3-aryl-2-cyano-3-hydroxy-acrylic acid derivatives” (Ciba Specialty Chemicals Corporation, priority 2003, dated 2009)
